± gives the expanded uncertainty stated by the source.
Settings: 101.33 kPa, Liquid

CCCCn1cc[n+](C)c1.F[P-](F)(F)(F)(F)F [1-butyl-3-methylimidazolium hexafluorophosphate]
Settings | mass density [kg/m3]
283.13 K | 1380.43 ± 1.4
293.12 K | 1372.15 ± 1.4
293.3 K | 1371.88 ± 1.4
302.83 K | 1363.87 ± 1.4
303.3 K | 1363.48 ± 1.4
312.68 K | 1355.45 ± 1.3
313.17 K | 1355.18 ± 1.3
322.64 K | 1347.23 ± 1.3
323.23 K | 1346.72 ± 1.3
332.56 K | 1338.7 ± 1.3
333.66 K | 1337.95 ± 1.3
342.41 K | 1330.79 ± 1.3
343.27 K | 1329.87 ± 1.3
